Values after ≈ are worked out from the molar mass of the structure shown. Read-outs that look alike come from different tables or passages of the source.
Assays:
Eimeria acervulina = test: efficacy against coccidial infections in chickens (Table II); assay type: in vivo; conditions: for Ratio: lesion score treated / infected control; for % Weight Gain / Average Degree of Infection: chicks; for Average Degree of Infection: lesion score 0 to 3, five days
Experimental: (§1) Efficacy data for Antibiotic CP-63,517 and its salts against coccidial infections in chickens was obtained in the following fashion. Groups of 3-5 ten-day old SPF white leghorn cockerel chicks were fed a mash diet containing Antibiotic CP-63,517, its sodium and/or potassium salt, or the known agents Monensin or Stenorol uniformly dispersed therein. After being on this ration for 24 hours each chick was inoculated per os with oocysts of the particular species of Eimeria being tested. Other groups of 3-5 ten-day old chicks were fed a similar mash diet free of any test compound. They were also infected after 24 hours and served as infected controls. Yet another group of 3-5 ten-day old chicks were fed the mash diet free of any test compound and were not infected with coccidia. These served as normal controls. The results of treatment were evaluated after five days in the case of E. acervulina, and six days for other challenges.
(§2) ^1 The criteria used to measure anticoccidial activity consisted of
(§3) lesion scores of 0 to 4 for Eimeria tenella after J. E. Lynch, "A New
(§4) Method for the Primary Evaluation of Anticoccidial Activity", Am. J. Vet.
(§5) modification of the scoring system devised by J. Johnson and W. H. Reid,
(§6) "Anticoccidial Drugs. Lesion Scoring Techniques in Battery and Floor Pen
(§7) Experiments in Chicks", Exp. Parasit. 28: 30-36 (1970). A constant ratio
(§8) was established by dividing the lesion score of each treated group by the
(§9) lesion score of the infected control.

Eimeria tenella = test: as above; assay type: in vivo; conditions: for Ratio: lesion score treated / infected control; for % Weight Gain / Average Degree of Infection: chicks; for Average Degree of Infection: lesion score 0 to 4, six days
Experimental: as §1, §2, §3, §4, §5, §6, §7, §8, §9

[1] = system: Staphylococcus epidermidis; test: in vitro MIC test (Table I); assay type: cell-based; conditions: 24 h
Experimental: (§10) In Table I, below, the results of in vitro MIC tests are summarized. For this test each organism is inoculated in a series of test tubes of CP-63,517 to determine the minimal concentration of the antibiotic in mcg/ml which inhibits the growth of the organism over a period of 24 hours (MIC).

Corynebacterium pyogenes = test: in vitro MIC test (Table I); assay type: cell-based; conditions: 24 hours
Experimental: as §10

Pasteurella multocida = test: in vitro MIC test (Table I); assay type: cell-based; conditions: 24 h
Experimental: as §10

L. catenaforme = test: in vitro MIC test (Table I); assay type: cell-based; conditions: strain 09C001; 24 hours
Experimental: as §10

P. haemolytica = test: in vitro MIC test (Table I); assay type: cell-based; conditions: Mannheimia haemolytica, 24 h
Experimental: as §10

Staphylococcus aureus = test: in vitro MIC test (Table I); assay type: cell-based; conditions: 24 h
Experimental: as §10

Erysip. rhusio = test: in vitro MIC test (Table I); assay type: cell-based; conditions: strain 04A005; 24 hours
Experimental: as §10

Peptococcus sp. = test: in vitro MIC test (Table I); assay type: cell-based; conditions: strain 17B001; 24 hours
Experimental: as §10

Bacteroides vulgates = test: in vitro MIC test (Table I); assay type: cell-based; conditions: 24 h
Experimental: as §10

Lactobacillus casei = test: in vitro MIC test (Table I); assay type: cell-based; conditions: Lacticaseibacillus casei; strain 09B001; 24 hours
Experimental: as §10

F. necrophorum = test: in vitro MIC test (Table I); assay type: cell-based; conditions: Fusobacterium necrophorum; strain 84C004; 24 hours
Experimental: as §10

Haemophilus parahemol. = test: in vitro MIC test (Table I); assay type: cell-based; conditions: strain 54B002, 24 hours
Experimental: as §10

Streptococcus pyogenes = test: in vitro MIC test (Table I); assay type: cell-based; conditions: strain 020054, 24 hours
Experimental: as §10

Moraxella bovis = test: in vitro MIC test (Table I); assay type: cell-based; conditions: strain 93A001, 24 hours
Experimental: as §10

Fusobacterium plauti = test: in vitro MIC test (Table I); assay type: cell-based; conditions: Flavonifractor plautii; strain 84G001; 24 hours
Experimental: as §10

Treponema hyodysenteriae = test: in vitro MIC test (Table I); assay type: cell-based; conditions: for MIC: 24 hours
Experimental: as §10

Bordatella bronchi = test: in vitro MIC test (Table I); assay type: cell-based; conditions: 24 h
Experimental: as §10

coccidial infections = test: activity against coccidial infections in poultry; conditions: in vivo
Experimental: as §1

[2] = 10 ppm in diet, replicate (in parentheses)
[3] = 20 ppm in diet, replicate (in parentheses)
[4] = 30 ppm in diet, replicate (in parentheses)
[5] = 40 ppm in diet, replicate (in parentheses)
[6] = diet of chickens at levels of 5 to 40 ppm

COC1CCC(OC2CC3(CC(O)C(C)C(C(C)C=C(C)C(=O)C(C)CC(C)C(=O)O)O3)OC2(C)C2CCC(C)C3(OC(C4OC(O)(CO)C(C)CC4C)CC3C)O2)OC1C (stereo not shown) [CP-63,517]
Ratio (Eimeria acervulina; 5 ppm in diet): 1.10 | Ratio (Eimeria acervulina; 10 ppm in diet): 0.50 | Ratio (Eimeria acervulina; [2]): 0.30 | Ratio (Eimeria acervulina; 20 ppm in diet): 0.40 | Ratio (Eimeria acervulina; [3]): 0.20 | Ratio (Eimeria acervulina; 30 ppm in diet): 0.20 | Ratio (Eimeria acervulina; [4]): 0.30 | Ratio (Eimeria acervulina; 40 ppm in diet): 0.60 | Ratio (Eimeria acervulina; [5]): 0.60 | % Weight Gain (Eimeria acervulina; 5 ppm in diet): 11% | Average Degree of Infection (Eimeria acervulina; 5 ppm in diet): 2.2 | % Weight Gain (Eimeria acervulina; 10 ppm in diet): 40% | Average Degree of Infection (Eimeria acervulina; 10 ppm in diet): 1.0 | Average Degree of Infection (Eimeria acervulina; [2]): 0.6 | % Weight Gain (Eimeria acervulina; [2]): 0% | % Weight Gain (Eimeria acervulina; 20 ppm in diet): 30% | Average Degree of Infection (Eimeria acervulina; 20 ppm in diet): 0.8 | Average Degree of Infection (Eimeria acervulina; [3]): 0.4 | % Weight Gain (Eimeria acervulina; [3]): 60% | % Weight Gain (Eimeria acervulina; 30 ppm in diet): 0% | Average Degree of Infection (Eimeria acervulina; 30 ppm in diet): 0.4 | Average Degree of Infection (Eimeria acervulina; [4]): 0.6 | % Weight Gain (Eimeria acervulina; [4]): 0% | % Weight Gain (Eimeria acervulina; 40 ppm in diet): 0% | Average Degree of Infection (Eimeria acervulina; 40 ppm in diet): 1.2 | Average Degree of Infection (Eimeria acervulina; [5]): 1.2 | % Weight Gain (Eimeria acervulina; [5]): 0% | control of infections due to E. acervulina (Eimeria acervulina; [6]): effective in controlling infections | Ratio (Eimeria tenella; 5 ppm in diet): 0.3 | Ratio (Eimeria tenella; 10 ppm in diet): 0.0 | Ratio (Eimeria tenella; [2]): 0.3 | Ratio (Eimeria tenella; 20 ppm in diet): 0.0 | Ratio (Eimeria tenella; [3]): 0.0 | Ratio (Eimeria tenella; 30 ppm in diet): 0.0 | Ratio (Eimeria tenella; [4]): 0.0 | Ratio (Eimeria tenella; 40 ppm in diet): 0.0 | Ratio (Eimeria tenella; [5]): 0.0 | % Weight Gain (Eimeria tenella; 5 ppm in diet): 63% | Average Degree of Infection (Eimeria tenella; 5 ppm in diet): 1.0 | % Weight Gain (Eimeria tenella; 10 ppm in diet): 36% | Average Degree of Infection (Eimeria tenella; 10 ppm in diet): 0.0 | Average Degree of Infection (Eimeria tenella; [2]): 1.0 | % Weight Gain (Eimeria tenella; [2]): 66% | % Weight Gain (Eimeria tenella; 20 ppm in diet): 14% | Average Degree of Infection (Eimeria tenella; 20 ppm in diet): 0.0 | Average Degree of Infection (Eimeria tenella; [3]): 0.0 | % Weight Gain (Eimeria tenella; [3]): 26% | % Weight Gain (Eimeria tenella; 30 ppm in diet): 0% | Average Degree of Infection (Eimeria tenella; 30 ppm in diet): 0.0 | Average Degree of Infection (Eimeria tenella; [4]): 0.0 | % Weight Gain (Eimeria tenella; [4]): 23% | % Weight Gain (Eimeria tenella; 40 ppm in diet): 0% | Average Degree of Infection (Eimeria tenella; 40 ppm in diet): 0.0 | Average Degree of Infection (Eimeria tenella; [5]): 0.0 | % Weight Gain (Eimeria tenella; [5]): 2% | control of infections due to Eimeria tenella (Eimeria tenella; [6]): effective in controlling infections | MIC ([1]; strain 01B087): 0.78 mg/L (≈ 0.9 µM) | MIC ([1]; strain 01B111): 0.39 mg/L (≈ 0.45 µM) | MIC (Corynebacterium pyogenes; Trueperella pyogenes, strain 11D001, read-out: MIC): 12.5 mg/L (≈ 14.4 µM) | MIC (Corynebacterium pyogenes; strain 11D002): 12.5 mg/L (≈ 14.4 µM) | MIC (Corynebacterium pyogenes; strain 11D003): 12.5 mg/L (≈ 14.4 µM) | MIC (Pasteurella multocida; strain 59A013): 50 mg/L (≈ 57.7 µM) | MIC (Pasteurella multocida; strain 59A048): 0.39 mg/L (≈ 0.45 µM) | MIC (L. catenaforme): 0.39 mg/L (≈ 0.45 µM) | MIC (P. haemolytica; strain 59B018): 0.39 mg/L (≈ 0.45 µM) | MIC (P. haemolytica; strain 59B046): 0.39 mg/L (≈ 0.45 µM) | MIC (P. haemolytica; strain 59B061): 50 mg/L (≈ 57.7 µM) | MIC (Staphylococcus aureus; strain 01A005): 0.39 mg/L (≈ 0.45 µM) | MIC (Staphylococcus aureus; strain 01A052): 0.39 mg/L (≈ 0.45 µM) | MIC (Staphylococcus aureus; strain 01A106): 0.78 mg/L (≈ 0.9 µM) | MIC (Staphylococcus aureus; strain 01A110): 0.39 mg/L (≈ 0.45 µM) | MIC (Staphylococcus aureus; strain 01A539): 0.78 mg/L (≈ 0.9 µM) | MIC (Staphylococcus aureus; strain 01A543): 3.12 mg/L (≈ 3.6 µM) | MIC (Erysip. rhusio): 0.39 mg/L (≈ 0.45 µM) | MIC (Peptococcus sp.): ≤ 0.1 mg/L | MIC (Bacteroides vulgates): 25 mg/L (≈ 28.8 µM) | MIC (Lactobacillus casei): 0.39 mg/L (≈ 0.45 µM) | MIC (F. necrophorum): 25 mg/L (≈ 28.8 µM) | MIC (Haemophilus parahemol.): 25 mg/L (≈ 28.8 µM) | MIC (Streptococcus pyogenes): 0.1 mg/L (≈ 0.115 µM) | MIC (Moraxella bovis): 50 mg/L (≈ 57.7 µM) | MIC (Fusobacterium plauti): 0.39 mg/L (≈ 0.45 µM) | MIC (Treponema hyodysenteriae; Brachyspira hyodysenteriae, strain 94A001, read-out: MIC): 6.25 mg/L (≈ 7.21 µM) | activity against Treponema hyodysenteriae (Treponema hyodysenteriae; in vitro): possesses activity against Treponema hyodysenteriae | MIC (Treponema hyodysenteriae; strain 94A002): 6.25 mg/L (≈ 7.21 µM) | MIC (Bordatella bronchi; strain 73A006): 0.39 mg/L (≈ 0.45 µM) | MIC (Bordatella bronchi; strain 73A016): 6.25 mg/L (≈ 7.21 µM) | activity against coccidial infections in poultry (coccidial infections): excellent activity
